Test system: EpidermFT™ Skin Model (EFT-400) full thickness skin cultures
Assay: Affymetrix GeneChip HG U133 Plus 2.0 microarray global gene expression, agent-exposed vs untreated skin cultures
Type: cell-based, human
Settings: Salicin 0.5% vs Untreated Control, 24 hr treatment

OCc1ccccc1O[C@@H]1O[C@H](CO)[C@@H](O)[C@H](O)[C@H]1O [Salicin, 2-(Hydroxymethyl)phenyl β-D-glucospyranoside]
up: Direction ABHD2 (221815_at) | Direction ABHD2 (225337_at) | Direction ADAMTS5 (235368_at) | Direction ADAMTS6 (1570351_at) | Direction ADCYAP1 (230237_at) | Direction AHI1 (220841_s_at) | Direction AHI1 (221569_at) | Direction AKR1C1 (1562102_at) | Direction AKT3 (212607_at) | Direction AKT3 (212609_s_at) | Direction AKT3 (222880_at) | Direction AKT3 (224229_s_at) | Direction ALG9 (228817_at) | Direction ANKRD28 (213035_at) | Direction ANKRD28 (229307_at) | Direction ARMC8 (1555281_x_at) | Direction ARNT2 (202986_at) | Direction ATF3 (1554980_a_at) | Direction ATP2A3 (207522_s_at) | Direction BAG2 (209406_at) | Direction BCL2L11 (1558143_a_at) | Direction BNC2 (220272_at) | Direction BNC2 (235723_at) | Direction C1GALT1C1 (238989_at) | Direction C1orf67 /// DNAH14 (242283_at) | Direction C13orf33 (227058_at) | Direction CABLES1 (225532_at) | Direction CARD16 (1552701_a_at) | Direction CCR1 (205098_at) | Direction CDCP1 (1554110_at) | Direction CDR2 (209501_at) | Direction CHST2 (203921_at) | Direction CLGN (205830_at) | Direction CNOT3 (203239_s_at) | Direction CPM (241765_at) | Direction CPM (243403_x_at) | Direction CREM (207630_s_at) | Direction CUL4B (202213_s_at) | Direction CXCL1 (204470_at) | Direction CYP7B1 (207386_at) | Direction CYR61 (210764_s_at) | Direction DENND3 (212975_at) | Direction DENND5B (228551_at) | Direction DGKI (206806_at) | Direction DNAJB9 (202842_s_at) | Direction DNAJB9 (1554462_a_at) | Direction DNAJC10 (221781_s_at) | Direction DNAJC10 (221782_at) | Direction DOCK4 (205003_at) | Direction DOCK5 (230206_at) | Direction DOCK5 (230263_s_at) | Direction DOK6 (236290_at) | Direction DSEL (232825_s_at) | Direction DUSP4 (204015_s_at) | Direction DZIP1 (204557_s_at) | Direction EIF2AK3 (218696_at) | Direction ELL2 (214446_at) | Direction ELTD1 (219134_at) | Direction ENPP1 (205066_s_at) | Direction ENTPD7 (220153_at) | Direction EPS8 (202609_at) | Direction EREG (205767_at) | Direction ERO1LB (220012_at) | Direction FADS1 (208963_x_at) | Direction FADS1 (208964_s_at) | Direction FAM20A (226804_at) | Direction FAM107B (223058_at) | Direction FAM107B (223059_s_at) | Direction FAR2 (220615_s_at) | Direction FAT4 (219427_at) | Direction FEM1B (212374_at) | Direction FGF7 (1555103_s_at) | Direction FGF7 /// KGFLP1 /// KGFLP2 (1554741_s_at) | Direction FHOD3 (218980_at) | Direction FKBP11 (219117_s_at) | Direction FKBP11 (219118_at) | Direction FMN2 (1555471_a_at) | Direction FN1 (214701_s_at) | Direction FN1 (214702_at) | Direction FOXJ3 (217310_s_at) | Direction FPR1 (205119_s_at) | Direction GAS1 (204457_s_at) | Direction GCLM (203925_at) | Direction GCLM (236140_at) | Direction GEM (204472_at) | Direction GFPT1 (226886_at) | Direction GFPT2 (205100_at) | Direction GLIPR1 (204222_s_at) | Direction GRAMD1A (224807_at) | Direction GRAMD1B (212906_at) | Direction GUCY1A3 (221942_s_at) | Direction GUCY1A3 (229530_at) | Direction HERC3 (1554290_at) | Direction HEY1 (44783_s_at) | Direction HIST1H2AB /// HIST1H2AE (214469_at) | Direction HIST1H2AD /// HIST1H3A /// HIST1H3B /// HIST1H3C /// HIST1H3D /// HIST1H3E /// HIST1H3F /// HIST1H3G /// HIST1H3H /// HIST1H3I /// HIST1H3J (214472_at) | Direction HIST2H2AA3 /// HIST2H2AA4 (214290_s_at) | Direction HK2 (222305_at) | Direction HOXB2 (205453_at) | Direction HSD17B2 (204818_at) | Direction HSPA13 (202557_at) | Direction ID2 /// ID2B (213931_at) | Direction IGFBP5 (211958_at) | Direction ING1 (209808_x_at) | Direction IRAK2 (231779_at) | Direction IRAK3 (220034_at) | Direction ITPRIP (225582_at) | Direction JHDM1D (225142_at) | Direction KCNA3 (207237_at) | Direction KCNE4 (222379_at) | Direction KCNE4 (1552508_at) | Direction KCNJ8 (205303_at) | Direction KCNJ8 (205304_s_at) | Direction KLF15 (231015_at) | Direction KLHL29 (229310_at) | Direction LCP1 (208885_at) | Direction LOC285628 (232504_at) | Direction LOC440028 (1562606_a_at) | Direction LOC729222 /// PPFIBP1 (214375_at) | Direction LOC100128821 /// ZEB2 (235593_at) | Direction LOC100132244 (229438_at) | Direction LPAR1 (204036_at) | Direction LPAR1 (204037_at) | Direction LPAR1 (204038_s_at) | Direction LPPR4 (213496_at) | Direction LRCH2 (227688_at) | Direction LRRK2 (229584_at) | Direction MAGEA4 (214254_at) | Direction MAP3K4 (216199_s_at) | Direction MAP3K5 (203836_s_at) | Direction MAP9 (220145_at) | Direction MASP1 (232224_at) | Direction MASP1 (235770_at) | Direction MESDC1 (223264_at) | Direction MGST1 (239001_at) | Direction MMD (203414_at) | Direction MTHFD2L (220346_at) | Direction MYO3B (1552578_a_at) | Direction NAMPT (217738_at) | Direction NEGR1 (1553194_at) | Direction NEXN (226103_at) | Direction NFKB2 (207535_s_at) | Direction NFKBIZ (223217_s_at) | Direction NOVA1 (205794_s_at) | Direction NR4A1 (202340_x_at) | Direction NRP2 (228699_at) | Direction OLAH (222945_x_at) | Direction PAPPA (201981_at) | Direction PAPPA (224940_s_at) | Direction PAPPA (224941_at) | Direction PAPPA (228128_x_at) | Direction PAPPA (1559400_s_at) | Direction PCDH7 (210941_at) | Direction PCSK1 (205825_at) | Direction PDE4D (211840_s_at) | Direction PEG10 (212092_at) | Direction PF4 (206390_x_at) | Direction PGM2L1 (229256_at) | Direction PHLDA1 (217996_at) | Direction PHTF1 (215285_s_at) | Direction PI15 (229947_at) | Direction PID1 (219093_at) | Direction PID1 (237867_s_at) | Direction PISD (202392_s_at) | Direction PITPNC1 (238649_at) | Direction PLAUR (211924_s_at) | Direction PLEKHA3 (223370_at) | Direction PTGER4 (204897_at) | Direction PTGES (207388_s_at) | Direction PTGES (210367_s_at) | Direction PTGS1 (205128_x_at) | Direction PTGS1 (215813_s_at) | Direction PTHLH (206300_s_at) | Direction PTHLH (211756_at) | Direction PTPRG (204944_at) | Direction QKI (228540_at) | Direction RAB3B (205924_at) | Direction RAB3B (227123_at) | Direction RAB23 (220955_x_at) | Direction RABGGTB (209180_at) | Direction RABGGTB (213704_at) | Direction RAI14 (202052_s_at) | Direction RASSF8 (235996_at) | Direction RGS3 (203823_at) | Direction RGS5 (209070_s_at) | Direction RGS12 (242079_at) | Direction RHOQ (212122_at) | Direction SEC24A (212902_at) | Direction SEMA3A (206805_at) | Direction SETDB2 (235339_at) | Direction SGK1 (201739_at) | Direction SH3RF3 (228461_at) | Direction SHOX (207570_at) | Direction SLC6A15 (232263_at) | Direction SLC11A2 (237106_at) | Direction SLC20A1 (230494_at) | Direction SLC43A3 (210692_s_at) | Direction SLFN11 (226743_at) | Direction SLIT2 (209897_s_at) | Direction SNHG12 (223774_at) | Direction SOCS2 (203373_at) | Direction SPON1 (209437_s_at) | Direction SPON1 (213993_at) | Direction SQSTM1 (213112_s_at) | Direction ST3GAL1 (208322_s_at) | Direction ST3GAL1 (225033_at) | Direction STK17B (205214_at) | Direction SULF1 (212344_at) | Direction TAF1A (206613_s_at) | Direction TAGLN (205547_s_at) | Direction TBC1D1 (212350_at) | Direction TBC1D1 (227945_at) | Direction TGM2 (201042_at) | Direction THBS1 (201108_s_at) | Direction THBS1 (239336_at) | Direction THRAP3 (242163_at) | Direction TMEM38B (222735_at) | Direction TMEM38B (222736_s_at) | Direction TMEM39A (218615_s_at) | Direction TMEM39A (222690_s_at) | Direction TMTC1 (226322_at) | Direction TMTC1 (226931_at) | Direction TNC (216005_at) | Direction TNFAIP6 (206026_s_at) | Direction TNIP3 (220655_at) | Direction TRPA1 (217590_s_at) | Direction TRPC4 (224220_x_at) | Direction UBE2B (239163_at)

— US20120034613A1, “Apparatus and Method for Testing Relationships Between Gene Expression and Physical Appearance of Skin” (NSE Products, Inc., priority 2010, published 2012)
